Data reported in patent US10351546B2, “Pyridin-3-yl acetic acid derivatives as inhibitors of human immunodeficiency virus replication” (priority 2015, dated 2019).

The molecules below were run on NL-RLuc virus (assay: Inhibition of HIV replication (NL-RLuc luciferase reporter virus in MT-2 cells)). Details: Human immunodeficiency virus 1, MT2, 120 h, read-out: Activity.
Assay type: cell-based
Procedure, shortened: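 MT-2 cells were infected with NL4-3-derived virus carrying Renilla luciferase in place of part of nef, in RPMI/10% FBS, with serial compound dilutions. Luciferase read after 5 days of multicycle replication. EC50 from the median effect equation, at least 2 experiments.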
Work on COCc1nc(C)c([C@H](OC(C)(C)C)C(=O)O)c(N2CCC(C)(C)CC2)c1-c1ccc2c(c1)CCN(Cc1ccc(F)cc1C)C2 [Example 157, (S)-2-(tert-Butoxy)-2-(4-(4,4-dimethylpiperidin-1-yl)-5-(2-(4-fluoro-2-methylbenzyl)-1,2,3,4-tetrahydroisoquinolin-6-yl)-6-(methoxymethyl)-2-methylpyridin-3-yl)acetic acid] yielded an EC50 of under 0.1 µM.
Molecule Cc1cc(F)ccc1CN1CCc2cc(-c3c(COC(C)C)nc(C)c([C@H](OC(C)(C)C)C(=O)O)c3N3CCC(C)(C)CC3)ccc2C1 [Example 158, (S)-2-(tert-Butoxy)-2-(4-(4,4-dimethylpiperidin-1-yl)-5-(2-(4-fluoro-2-methylbenzyl)-1,2,3,4-tetrahydroisoquinolin-6-yl)-6-(isopropoxymethyl)-2-methylpyridin-3-yl)acetic acid] has an EC50 of under 0.1 µM.
With Cc1cc(F)ccc1CN1CCc2cc(-c3c(COCC4CCOCC4)nc(C)c([C@H](OC(C)(C)C)C(=O)O)c3N3CCC(C)(C)CC3)ccc2C1 [Example 159, (S)-2-(tert-Butoxy)-2-(4-(4,4-dimethylpiperidin-1-yl)-5-(2-(4-fluoro-2-methylbenzyl)-1,2,3,4-tetrahydroisoquinolin-6-yl)-2-methyl-6-(((tetrahydro-2H-pyran-4-yl)methoxy)methyl)pyridin-3-yl)acetic acid] the EC50 was under 0.1 µM.
Work on CCOCCOCc1nc(C)c([C@H](OC(C)(C)C)C(=O)O)c(N2CCC(C)(C)CC2)c1-c1ccc2c(c1)CCN(Cc1ccc(F)cc1C)C2 [Example 160, (S)-2-(tert-Butoxy)-2-(4-(4,4-dimethylpiperidin-1-yl)-6-((2-ethoxyethoxy)methyl)-5-(2-(4-fluoro-2-methylbenzyl)-1,2,3,4-tetrahydroisoquinolin-6-yl)-2-methylpyridin-3-yl)acetic acid] yielded an EC50 of under 0.1 µM.
Molecule C#Cc1nc(C)c([C@H](OC(C)(C)C)C(=O)O)c(N2CCC(C)(C)CC2)c1-c1ccc(OCCc2ccc(F)cc2)cc1 [Example 161, (S)-2-(tert-Butoxy)-2-(4-(4,4-dimethylpiperidin-1-yl)-6-ethynyl-5-(4-(4-fluorophenethoxy)phenyl)-2-methylpyridin-3-yl)acetic acid] has an EC50 of under 0.1 µM.
For Cc1nc(C#N)c(-c2ccc(OCCc3ccc(F)cc3)cc2)c(N2CCC(C)(C)CC2)c1[C@H](OC(C)(C)C)C(=O)O [Example 162, (S)-2-(tert-Butoxy)-2-(6-cyano-4-(4,4-dimethylpiperidin-1-yl)-5-(4-(4-fluorophenethoxy)phenyl)-2-methylpyridin-3-yl)acetic acid], the EC50 was under 0.1 µM.
CC#Cc1nc(C)c([C@H](OC(C)(C)C)C(=O)O)c(N2CCC(C)(C)CC2)c1-c1ccc(OCCc2ccc(F)cc2)cc1 [Example 163, (S)-2-(tert-butoxy)-2-(4-(4,4-dimethylpiperidin-1-yl)-5-(4-(4-fluorophenethoxy)phenyl)-2-methyl-6-(prop-1-yn-1-yl)pyridin-3-yl)acetic acid] showed an EC50 of under 0.1 µM.
With Cc1cccc(Cl)c1CN1CCc2cc(-c3c(N)nc(C)c([C@H](OC(C)(C)C)C(=O)O)c3N3CCC(C)(C)CC3)ccc2C1 [Example 164, (S)-2-(6-Amino-5-(2-(2-chloro-6-methylbenzyl)-1,2,3,4-tetrahydroisoquinolin-6-yl)-4-(4,4-dimethylpiperidin-1-yl)-2-methylpyridin-3-yl)-2-(tert-butoxy)acetic acid] the EC50 was under 0.1 µM.
With Cc1cccc(Cl)c1CN1CCc2cc(-c3c(CO)nc(C)c([C@H](OC(C)(C)C)C(=O)O)c3N3CCC(C)(C)CC3)ccc2C1 [Example 165, (S)-2-(tert-butoxy)-2-(5-(2-(2-chloro-6-methylbenzyl)-1,2,3,4-tetrahydroisoquinolin-6-yl)-4-(4,4-dimethylpiperidin-1-yl)-6-(hydroxymethyl)-2-methylpyridin-3-yl)acetic acid] the EC50 was under 0.1 µM.
Cc1cccc(Cl)c1CN1CCc2cc(-c3c(C#N)nc(C)c([C@H](OC(C)(C)C)C(=O)O)c3N3CCC(C)(C)CC3)ccc2C1 [Example 166, (S)-2-(tert-butoxy)-2-(5-(2-(2-chloro-6-methylbenzyl)-1,2,3,4-tetrahydroisoquinolin-6-yl)-6-cyano-4-(4,4-dimethylpiperidin-1-yl)-2-methylpyridin-3-yl)acetic acid] was tested, and the EC50 was under 0.1 µM.
In the case of Cc1nc(N)c(-c2ccc3c(c2)CCN(c2ncnc4c2oc2ccccc24)C3)c(N2CCC(C)(C)CC2)c1[C@H](OC(C)(C)C)C(=O)O [Example 167, (S)-2-(6-amino-5-(2-(benzofuro[3,2-d]pyrimidin-4-yl)-1,2,3,4-tetrahydroisoquinolin-6-yl)-4-(4,4-dimethylpiperidin-1-yl)-2-methylpyridin-3-yl)-2-(tert-butoxy)acetic acid], the EC50 is reported as under 0.1 µM.
For Cc1nc(CO)c(-c2ccc3c(c2)CCN(c2ncnc4c2oc2ccccc24)C3)c(N2CCC(C)(C)CC2)c1[C@H](OC(C)(C)C)C(=O)O [Example 168, (S)-2-(5-(2-(Benzofuro[3,2-d]pyrimidin-4-yl)-1,2,3,4-tetrahydroisoquinolin-6-yl)-4-(4,4-dimethylpiperidin-1-yl)-6-(hydroxymethyl)-2-methylpyridin-3-yl)-2-(tert-butoxy)acetic acid], the EC50 was under 0.1 µM.
In the case of Cc1nc(-c2cn(C)nn2)c(-c2ccc(OCCc3ccc(F)cc3)cc2)c(N2CCC(C)(C)CC2)c1[C@H](OC(C)(C)C)C(=O)O [Example 169, (S)-2-(tert-butoxy)-2-(4-(4,4-dimethylpiperidin-1-yl)-5-(4-(4-fluorophenethoxy)phenyl)-2-methyl-6-(1-methyl-1H-1,2,3-triazol-4-yl)pyridin-3-yl)acetic acid], the EC50 is reported as under 0.1 µM.
Cc1nc(Cc2ccc(F)cc2)c(-c2ccc(OCCc3ccc(F)cc3)cc2)c(N2CCC(C)(C)CC2)c1[C@H](OC(C)(C)C)C(=O)O [Example 170, (S)-2-(tert-Butoxy)-2-(4-(4,4-dimethylpiperidin-1-yl)-6-(4-fluorobenzyl)-5-(4-(4-fluorophenethoxy)phenyl)-2-methylpyridin-3-yl)acetic acid] gave an EC50 of under 0.1 µM.
Molecule Cc1nc(CC2=CCCCC2)c(-c2ccc(OCCc3ccc(F)cc3)cc2)c(N2CCC(C)(C)CC2)c1[C@H](OC(C)(C)C)C(=O)O [Example 171, (S)-2-(tert-Butoxy)-2-(6-(cyclohex-1-en-1-ylmethyl)-4-(4,4-dimethylpiperidin-1-yl)-5-(4-(4-fluorophenethoxy)phenyl)-2-methylpyridin-3-yl)acetic acid] has an EC50 of under 0.1 µM.
Work on Cc1nc(CC2CCCCC2)c(-c2ccc(OCCc3ccc(F)cc3)cc2)c(N2CCC(C)(C)CC2)c1[C@H](OC(C)(C)C)C(=O)O [Example 172, (S)-2-(tert-Butoxy)-2-(6-(cyclohexylmethyl)-4-(4,4-dimethylpiperidin-1-yl)-5-(4-(4-fluorophenethoxy)phenyl)-2-methylpyridin-3-yl)acetic acid] yielded an EC50 of under 0.1 µM.
Cc1nc(CC2CCC(C)(C)CC2)c(-c2ccc(OCCc3ccc(F)cc3)cc2)c(N2CCC(C)(C)CC2)c1[C@H](OC(C)(C)C)C(=O)O [Example 173, (S)-2-(tert-Butoxy)-2-(6-((4,4-dimethylcyclohexyl)methyl)-4-(4,4-dimethylpiperidin-1-yl)-5-(4-(4-fluorophenethoxy)phenyl)-2-methylpyridin-3-yl)acetic acid] gave an EC50 of under 0.1 µM.

Same assay, conditions: Human immunodeficiency virus 1, MT2, 120 h, read-out: EC50 μM
Molecule Cc1nc(C#N)c(-c2ccc(OCCc3ccc(F)cc3)cc2)c(N2CCC(C)(C)CC2)c1[C@H](OC(C)(C)C)C(=O)O [Example 162, (S)-2-(tert-Butoxy)-2-(6-cyano-4-(4,4-dimethylpiperidin-1-yl)-5-(4-(4-fluorophenethoxy)phenyl)-2-methylpyridin-3-yl)acetic acid] has an EC50 of 0.008 µM.
Work on Cc1nc(CO)c(-c2ccc3c(c2)CCN(c2ncnc4c2oc2ccccc24)C3)c(N2CCC(C)(C)CC2)c1[C@H](OC(C)(C)C)C(=O)O [Example 168, (S)-2-(5-(2-(Benzofuro[3,2-d]pyrimidin-4-yl)-1,2,3,4-tetrahydroisoquinolin-6-yl)-4-(4,4-dimethylpiperidin-1-yl)-6-(hydroxymethyl)-2-methylpyridin-3-yl)-2-(tert-butoxy)acetic acid] yielded an EC50 of 0.001 µM.
With Cc1nc(CC2CCC(C)(C)CC2)c(-c2ccc(OCCc3ccc(F)cc3)cc2)c(N2CCC(C)(C)CC2)c1[C@H](OC(C)(C)C)C(=O)O [Example 173, (S)-2-(tert-Butoxy)-2-(6-((4,4-dimethylcyclohexyl)methyl)-4-(4,4-dimethylpiperidin-1-yl)-5-(4-(4-fluorophenethoxy)phenyl)-2-methylpyridin-3-yl)acetic acid] the EC50 was 0.035 µM.
